US4636464A (priority 1985, dated 1987)

Experiments:
Format in all cases: biochemical, Coriolus versicolor
pyranose oxidase [1] = molecular target: T1, pyranose oxidase (Trametes versicolor, UniProt P79076); assay: Electron acceptor test (Thunberg tube, absorbancy change)
T1 construct: made in house; not recombinant
Protocol: In this phase, 1.4 ml of 50 mM tris-hydrochloride buffer (pH 7.0), 0.1 ml of 250 mU enzyme solution and 0.5 ml of electron acceptor solutions having various concentrations as indicated in Table 2 are put into a cell with Thunberg tube. […] The change in absorbancy per minute from 30 minutes to 90 minutes after the mixturing is determined and the activities of the electron acceptors are expressed as relative activity.

pyranose oxidase [2] = molecular target: T1, pyranose oxidase; conditions: for Percent Inhibition (%): 0.2 ml of 18.5 mM inhibitor solution, 280 mU pyranose oxidase, pH 7.0, 37° C.
Text: The inhibitor is studied in the same manner as that adopted in determination of the optimum pH.

pyranose oxidase [3] = molecular target: T1, pyranose oxidase; assay: biochemical; design: activity: dose or concentration left out as unconfirmed; conditions: for activity at 100000 µM: pH 7, read-out: Relative Activity (%); for activity: pH 7, read-out: Relative Activity (%); for Substrate specificity in words: same test as Table 1
Protocol: Said coloring reagent is prepared by adding 0.1M tris-hydrochloride buffer (pH 7.0) containing 10 m mol/l 4-aminoantipyrine(hereinafter referred to as 4AA) and 10 m mol/l phenol, to peroxidase in a concentration of 2000 U per 100 ml of the buffer. The increasing rate of the absorbancy at 500 nm is automatically measured on a spectrophotometer. The molecular extinction coefficient of a quinoneimine pigment formed under these conditions is defined as 5.3×10^3, and one unit of the enzymatic activity is also defined as the amount of the enzyme that produces one μ mole of hydrogen peroxide per minute at a temperature of 37° C. and at a pH of 7.0.
The results are expressed as percentages of the glucose reaction.

[4] = electron acceptor solution 0.1 mM, pH 7.0, dissolved oxygen removed, read-out: Relative Activity (%)
[5] = electron acceptor solution 0.1 mM, pH 7.0, dissolved oxygen removed

In the case of `O=C1C(Cl)=CC(=Nc2ccc(O)cc2)C=C1Cl` [2,6-Dichlorophenolindophenol], the “Suitability as electron acceptor in words” value (“Suitability” below) (pyranose oxidase [1]) is reported as “may be made electron acceptor” and the activity at 40 µM (stock) (pyranose oxidase [1]; electron acceptor solution 0.04 mM, pH 7.0, dissolved oxygen removed, read-out: Relative Activity (%)) is reported as 2.5%.

`NC(=O)c1ccc[n+]([C@@H]2O[C@H](COP(=O)([O-])OP(=O)(O)OC[C@H]3O[C@@H](n4cnc5c(N)ncnc54)[C@H](OP(=O)(O)O)[C@@H]3O)[C@@H](O)[C@H]2O)c1` [Nicotinamide-adenine dinucleotide phosphate] gave an activity at 100 µM (stock) (pyranose oxidase [1]; [4]) of 0%.

With `NC(=O)c1ccc[n+]([C@@H]2O[C@H](COP(=O)([O-])OP(=O)(O)OC[C@H]3O[C@@H](n4cnc5c(N)ncnc54)[C@H](O)[C@@H]3O)[C@@H](O)[C@H]2O)c1` [Nicotinamide-adenine dinucleotide] the activity at 100 µM (stock) (pyranose oxidase [1]; [4]) was 0%.

With `O=O` [Oxygen] the “Suitability” value (pyranose oxidase [1]) was “optimum electron acceptor” and the “Relative Activity (%)” value (pyranose oxidase [1]; electron acceptor: dissolved oxygen, pH 7.0, glucose substrate) was 100%.

`O=S(=O)([O-])[O-].[Co+2]` [cobalt sulfate] was tested, and the “Percent Inhibition (%)” value (pyranose oxidase [2]) was 13.3%.

With `O=S(=O)([O-])[O-].[Cu+2]` [copper sulfate] the “Inhibition of the enzymatic action in words” value (shortened to “Inhibition … in words”) (pyranose oxidase [2]) was “inhibited” and the “Percent Inhibition (%)” value (pyranose oxidase [2]) was 35.7%.

In the case of `O=C(CO)[C@@H](O)[C@H](O)[C@H](O)CO` [fructose], the activity at 100000 µM (pyranose oxidase [3]) is reported as 0%.

For `O=C(O)[C@H](O)[C@@H](O)[C@H](O)[C@H](O)CO` [gluconic acid], the activity (pyranose oxidase [3]) was 0%.

In the case of `N[C@H]1C(O)O[C@H](CO)[C@@H](O)[C@@H]1O` (stereo partly shown) [glucosamine], the activity (pyranose oxidase [3]) is reported as 0%.

`OC[C@H]1O[C@@H](O[C@H]2[C@H](O)[C@@H](O)C(O)O[C@@H]2CO)[C@H](O)[C@@H](O)[C@H]1O` (stereo partly shown) [lactose] showed an activity (pyranose oxidase [3]) of 0%.

`O=S(=O)([O-])[O-].[Mg+2]` [magnesium sulfate] was tested, and the “Percent Inhibition (%)” value (pyranose oxidase [2]) was 0%.

In the case of `OC[C@H]1O[C@H](O[C@H]2[C@H](O)[C@@H](O)[C@H](O)O[C@@H]2CO)[C@H](O)[C@@H](O)[C@@H]1O` [maltose], the activity (pyranose oxidase [3]) is reported as 0%.

`OC[C@@H](O)[C@@H](O)[C@H](O)[C@H](O)CO` [mannitol] showed an activity (pyranose oxidase [3]) of 0%.

In the case of `O=C(O)c1cc[c]([Hg][Cl])cc1` [p-chloromercuribenzoate], the “Inhibition … in words” value (pyranose oxidase [2]) is reported as “inhibited” and the “Percent Inhibition (%)” value (pyranose oxidase [2]) is reported as 50.0%.

`O=[N+]([O-])[O-].[Ag+]` [silver nitrate] was tested, and the “Inhibition … in words” value (pyranose oxidase [2]) was “inhibited” and the “Percent Inhibition (%)” value (pyranose oxidase [2]) was 53.3%.

With `O=C(CO)[C@H](O)[C@@H](O)[C@H](O)CO` [sorbose] the activity at 100000 µM (pyranose oxidase [3]) was 3.4% and the “Substrate specificity in words” value (pyranose oxidase [3]) was “acts upon”.

In the case of `OC[C@H]1O[C@H](O[C@H]2O[C@H](CO)[C@@H](O)[C@H](O)[C@H]2O)[C@H](O)[C@@H](O)[C@@H]1O` [trehalose], the activity (pyranose oxidase [3]) is reported as 0%.

`OC1OC[C@@H](O)[C@H](O)[C@H]1O` (stereo partly shown) [xylose] was tested, and the activity (pyranose oxidase [3]) was 2.6% and the “Substrate specificity in words” value (pyranose oxidase [3]) was “acts upon”.

For Cytochrome C, the “Suitability” value (pyranose oxidase [1]) was “may be made electron acceptor” and the “Relative Activity (%)” value (pyranose oxidase [1]; [5]) was 0.33%.

With Nitroprusside-tetrazolium the “Relative Activity (%)” value (pyranose oxidase [1]; [5]) was 0%.
